In ChEMBL document CHEMBL1201862, “PubChem BioAssay data set” (2004):
Calls of active or inactive are those of the source.

Tests used:
HEK293 [1] = experiment: cells; assay type: functional, cell-based; details: Homo sapiens
HEK293 [2] = experiment: cells; assay type: functional, cell-based; details: Homo sapiens; remark: listed apart in the source
[3] = Luminescence Cell-Based Dose Confirmation HTS to Identify Inhibitors of Platelet Dense Granule Release. [Related pubchem assays: 1663 (Primary HTS), 1678 (Summary of Project)]; assay type: functional
HEK293 [4] = experiment: NOD2 signaling inhibitors in MDP-stimulated cells, cell-based, uHTS, luminescence (AID 2001); assay type: functional; details: Homo sapiens
HEK293 [5] = experiment: NOD1 signaling inhibitors, primary screen, cell-based, luminescence, uHTS (AID 1578); assay type: functional; details: Homo sapiens
[6] = non-specific cell cytotoxicity, dose response, cytotoxicity control for PAX8 inhibitor project, plate reader, dry powder samples (AID 743021); assay type: functional, cell-based
HEK293 [7] = experiment: cells; assay type: functional, cell-based; details: Homo sapiens; remark: listed apart in the source
[8] = target: Peroxisome proliferator-activated receptor gamma/Nuclear receptor coactivator 3 (Homo sapiens, UniProt P37231); experiment: TR-FRET dose response biochemical High Throughput Screening assay for agonists of the steroid receptor coactivator 3 (SRC-3) recruitment by the peroxisome proliferator-activated receptor gamma (PPAR gamma): non-selective agonists. [Related pubchem assays: 1301 (Confirmation screen.), 1048 (Primary screen.)]; assay type: functional
Troponin, cardiac muscle = Troponin, cardiac muscle (Homo sapiens, UniProt P19429+P45379+P63316); experiment: Fluorescence-based biochemical high throughput dose response assay for activators of the calcium sensitivity of cardiac Regulated Thin Filaments (RTF). [Related pubchem assays (depositor defined):AID493008, AID493018, AID504382, AID504383]; assay type: protein-complex assay
[9] = target: Peroxisome proliferator-activated receptor gamma/Nuclear receptor coactivator 2 (Homo sapiens, UniProt P37231); experiment: (§1) TR-FRET dose response biochemical High Throughput Screening assay for agonists of the steroid receptor coactivator 2 (SRC-2) recruitment by the peroxisome proliferator-activated receptor gamma (PPAR gamma): non-selective agonists. [Related pubchem assays: 1297, 1032 ]; assay type: functional
[10] = target: Peroxisome proliferator-activated receptor gamma/Nuclear receptor coactivator 1 (Homo sapiens, UniProt P37231); experiment: as §1, with “1 (SRC-1)” for “2 (SRC-2)”, “assays (depositor defined):AID1300, AID1808, AID504735, AID631]” for “assays: 1297, 1032 ]”; assay type: protein assay
Estrogen receptor = target: T1, Estrogen receptor (Homo sapiens, UniProt P03372);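 also: potency for inhibiting coactivator peptide recruitment to the receptor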
T1 sequence (P03372 whole entry): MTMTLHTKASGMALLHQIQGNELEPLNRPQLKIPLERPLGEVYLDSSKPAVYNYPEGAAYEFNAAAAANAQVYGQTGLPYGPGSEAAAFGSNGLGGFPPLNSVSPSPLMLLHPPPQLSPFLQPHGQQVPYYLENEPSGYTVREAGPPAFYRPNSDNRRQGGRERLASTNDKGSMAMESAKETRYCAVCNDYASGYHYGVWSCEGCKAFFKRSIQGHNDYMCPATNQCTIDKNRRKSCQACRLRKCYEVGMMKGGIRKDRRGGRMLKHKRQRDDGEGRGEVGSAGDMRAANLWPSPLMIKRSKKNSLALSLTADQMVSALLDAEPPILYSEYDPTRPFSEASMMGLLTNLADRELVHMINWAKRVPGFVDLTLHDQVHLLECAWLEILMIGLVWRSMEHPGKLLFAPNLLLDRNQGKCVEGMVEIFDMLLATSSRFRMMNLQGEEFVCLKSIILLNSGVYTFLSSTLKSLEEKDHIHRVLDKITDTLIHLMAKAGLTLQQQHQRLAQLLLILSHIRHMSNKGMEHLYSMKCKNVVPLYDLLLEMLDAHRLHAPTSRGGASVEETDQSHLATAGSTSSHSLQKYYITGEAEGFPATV

Cytochrome P450 3A4 = Cytochrome P450 3A4 (Homo sapiens, UniProt P08684);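 also: CYP3A4 tested as one member of a cytochrome P450 panel screen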
Cytochrome P450 2C9 [11] = target: T2, Cytochrome P450 2C9 (Homo sapiens, UniProt P11712)
Cytochrome P450 2D6 = Cytochrome P450 2D6 (Homo sapiens, UniProt P10635);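 also: CYP2D6 member of a cytochrome P450 panel assay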
Cytochrome P450 2C19 = Cytochrome P450 2C19 (Homo sapiens, UniProt P33261); experiment: Cytochrome panel assay with activity outcomes. Panel member name: p450-cyp2c19 Compounds with AC50 equal or less than 10 uM are considered active; assay type: functional
Cytochrome P450 1A2 = target: T3, Cytochrome P450 1A2 (Homo sapiens, UniProt P05177);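 also: PubChem cytochrome P450 panel assay, CYP1A2 panel member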
T3 sequence (P05177 whole entry): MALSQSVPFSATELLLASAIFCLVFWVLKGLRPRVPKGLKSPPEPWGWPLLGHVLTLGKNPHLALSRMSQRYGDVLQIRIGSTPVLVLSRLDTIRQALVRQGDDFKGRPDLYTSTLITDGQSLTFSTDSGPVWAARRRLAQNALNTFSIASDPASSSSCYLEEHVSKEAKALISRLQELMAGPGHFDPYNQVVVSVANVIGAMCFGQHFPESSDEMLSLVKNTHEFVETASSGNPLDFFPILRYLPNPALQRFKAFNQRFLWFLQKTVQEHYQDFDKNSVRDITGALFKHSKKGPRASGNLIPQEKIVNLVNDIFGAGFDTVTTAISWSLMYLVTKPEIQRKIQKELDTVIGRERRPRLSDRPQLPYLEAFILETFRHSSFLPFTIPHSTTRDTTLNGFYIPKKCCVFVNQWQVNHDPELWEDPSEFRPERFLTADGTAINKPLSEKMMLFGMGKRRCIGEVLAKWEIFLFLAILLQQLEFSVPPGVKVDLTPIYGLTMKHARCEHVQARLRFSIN

[12] = target: Nucleotide-binding oligomerization domain-containing protein 2 (Homo sapiens, UniProt Q9HC29); experiment: NOD2 signaling inhibitors, cell-based, luminescence, uHTS, HEK293 (AID 1566); assay type: functional
[13] = target: Glucose-6-phosphate 1-dehydrogenase (Homo sapiens, UniProt P11413); experiment: human G6PD enzyme inhibitors, dose response, selectivity assay for P. falciparum G6PD inhibitor project, biochemical, fluorescence (AID 504792); assay type: functional
Cytochrome P450 2C9 [14] = target: T2, Cytochrome P450 2C9; remark: listed apart in the source
HEK293 [15] = experiment: cells; details: Homo sapiens
HEK293 [16] = experiment: cells; details: Homo sapiens; remark: listed apart in the source
[17] = cytotoxicity in MIN6 insulinoma cells, dose response, cytotoxicity control, cell-based, mouse insulinoma (AID 2122); assay type: functional;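 also: confirmatory high-throughput counterscreen run to flag cytotoxic compounds; mouse MIN-6 beta cells carrying an insulin promoter eGFP reporter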
[18] = insulin promoter down-regulators in MIN6 cells, imaging, high-content screening, mouse beta cells (AID 1628); assay type: functional

With `COc1ccc(N(Cc2cc3cc(OC)ccc3nc2O)S(=O)(=O)c2ccc(NC(C)=O)cc2)cc1` as the compound, how does the IC50 (HEK293 [1]) read?
The IC50 was > 20 µM (inactive).

And the IC50 (HEK293 [2])?
Its IC50 is > 20 µM (inactive).

What about the EC50 [3] of the same compound?
The EC50 was > 112 µM (not active).

What about the IC50 (HEK293 [4]) of the same compound?
Its IC50 is > 20 µM (inactive).

What about the EC50 (HEK293 [5]) of the same compound?
The EC50 was > 20 µM (inactive).

What about the AC50 [6] of the same compound?
Its AC50 is 49.1 µM (active).

And the IC50 (HEK293 [7])?
The IC50 was 7.22 µM (active).

Which results are given for `COC(=O)c1sc(N2C(=O)C(O)=C(C(=O)c3ccc(C)o3)C2c2ccc(F)cc2)nc1C` (stereo not drawn)?
EC50 [8]: > 79.4 µM (not active); EC50 (Troponin, cardiac muscle): > 71.4 µM (inactive); EC50 [9]: 32.3 µM (not active); EC50 [10]: 41.9 µM (inactive)

Which results are given for `O=C1CC(c2ccc(F)cc2)Cc2nc(NCC3CCCO3)ncc21` (stereo not drawn)?
IC50 (Estrogen receptor): > 50 µM (not active); AC50 (Cytochrome P450 3A4): inconclusive

Which results are given for `CCCCCCCCCC[Si](C)(C)CCC(=O)N[C@@H](Cc1ccc(C)cc1)c1ccccc1`?
AC50 (Cytochrome P450 2C9 [11]): inconclusive; AC50 (Cytochrome P450 2D6): 39.8 µM (inconclusive); AC50 (Cytochrome P450 2C19): inconclusive; AC50 (Cytochrome P450 1A2): 31.6 µM (inconclusive)

Which IC50 (HEK293 [1]) does the source give for `COc1ccc(CCNC(=O)c2ccc3c(c2)N(Cc2ccccc2)CCS3)cc1OC` here?
Its IC50 is > 20 µM (inactive).

And the IC50 (HEK293 [2])?
Its IC50 is > 20 µM (inactive).

What about the IC50 (HEK293 [4]) of the same compound?
Its IC50 is 7.53 µM (active).

And the EC50 (HEK293 [5])?
The EC50 was 6.99 µM (active).

And the EC50 [12]?
The EC50 was > 20 µM (inactive).

And the IC50 (HEK293 [7])?
Its IC50 is 8.65 µM (active).

For `CCNc1nc(NC(C)C)nc(NS(=O)(=O)c2ccc(Cl)cc2)n1`, which IC50 [13] is on record?
Its IC50 is > 80 µM (inactive).

What does the source list for `CC1(C)CC(NC(=O)c2ccc3c(c2)OCO3)CC(C)(C)N1`?
AC50 (Cytochrome P450 3A4): inconclusive; AC50 (Cytochrome P450 2C9 [14]): 8.91 µM (inconclusive)

For `C/C(NN1CCCCC1c1cccnc1)=C1/C(=O)NC(=S)N(C2CCCCC2)C1=O` (stereo not drawn), which EC50 (HEK293 [15]) is on record?
The EC50 was > 59.6 µM (inactive).

What about the EC50 (Troponin, cardiac muscle) of the same compound?
Its EC50 is 14.9 µM (inactive).

And the EC50 (HEK293 [16])?
The EC50 was > 59.6 µM (inactive).

For `Cc1ccccc1-c1cc(N(C)C)ncn1`, which AC50 (Cytochrome P450 2D6) is on record?
Its AC50 is 39.8 µM (inconclusive).

And the AC50 (Cytochrome P450 3A4)?
Its AC50 is “inconclusive”.

For `Cc1nc2ccccn2c1C(=O)N=Nc1c(O)n(CCC(C)C)c2ccccc12`, which IC50 [17] is on record?
The IC50 was 2.72 µM (active).

What about the IC50 [18] of the same compound?
Its IC50 is 1.67 µM (active).
